These results are taken from PubChem BioAssay AID1645848.

In brackets after ≈: the same amount, converted by molar mass.

The conditions of the series: buffer; pH 7.4; 6.0 h; 150.0 µM.
For `CSc1ncc(Cl)c(C(=O)Nc2c(C)cccc2C)n1`, the solubility (kinetic) (commonly the concentration staying in solution when a stock, usually in DMSO, is diluted into the medium) was determined as 1.91 µg/mL (≈ 6.19 µM).
The result for `Cc1ccccc1CSc1nc2ncc(Br)cc2[nH]1` reads less than 1 µg/mL; that for `CC[C@H](Nc1ncnc2nc[nH]c12)c1nc2cccc(F)c2c(=O)n1-c1ccccc1`, more than 61 µg/mL; that for `Cc1cc(C)nc(NC(=S)N2CCN(c3ccc(F)cc3F)CC2)c1`, 24.8 µg/mL (≈ 68.4 µM).
Compound `NC(=O)C1CCN(c2nc(-c3ccc(OCc4ccccc4)cc3)cs2)CC1` registered a solubility (kinetic) of less than 1 µg/mL.
`CCOC(=O)c1ccc(NC(=O)c2sc3nc4c(cc3c2N)N2CCC4CC2)cc1` showed a kinetic solubility of less than 1 µg/mL.
The result for `Cc1ccc(/C=C/c2nc3ccccc3n2S(=O)(=O)c2cccc(Cl)c2)cc1` reads less than 1 µg/mL; that for `Cc1ccc(-n2ncc3c(NCCCn4ccnc4)ncnc32)cc1Cl`, 4.07 µg/mL (≈ 11.1 µM); that for `Fc1cc(Nc2nc(-c3ccncc3)nc3ccccc23)ccc1-c1cn[nH]c1`, less than 1 µg/mL.
The result for `Cc1ccc(S(=O)(=O)Nc2ccc(OC(F)(F)F)cc2C(=O)Nc2nc(-c3ccccc3)cs2)cc1` reads less than 1 µg/mL; that for `COc1cccc(C(=O)Nc2nc(-c3nnn(-c4cccc(Cl)c4C)c3C)ns2)c1`, less than 1 µg/mL.
Compound `Cc1ccc(-c2cc(C(=O)Nc3ccc(S(=O)(=O)N(C)C)cc3)c3ccccc3n2)cc1C` showed a solubility (kinetic) of less than 1 µg/mL.
In turn, `CCCc1cc(C)[nH]c(=O)c1CNC(=O)c1cc(-c2ccc(N3CCN(C(C)C)CC3)nc2)cc2c1cnn2C(C)C` gave a kinetic solubility of 41.1 µg/mL (≈ 72.1 µM).
Take `O=C(NCCc1ccc(OCC(F)(F)F)c(OCC(F)(F)F)c1)c1cc2sccc2n1Cc1ccccc1`: the solubility (kinetic) was less than 1 µg/mL.
To `O=S(=O)(Nc1nc2ccccc2s1)c1ccc(NCc2cccc(Cl)c2O)cc1` belongs 1.1 µg/mL (≈ 2.46 µM); to `NC(=O)C1CCN(c2ncc(-c3cccc(F)c3)s2)CC1`, 17.7 µg/mL (≈ 58.1 µM).
For the compound `O=C(Nc1ccc(N2CCN(C(=O)c3ccccc3F)CC2)cc1)c1cncc(Br)c1`, the solubility (kinetic) was found to be 3.75 µg/mL (≈ 7.77 µM).
Compound `COc1ccc(NC(=O)C2=C(C)NC(Nc3nc4ccccc4o3)=NC2c2ccccc2Br)cc1` (stereo not given) gave a kinetic solubility of less than 1 µg/mL.
The result for `COc1ccc(NC(C)=O)cc1S(=O)(=O)Nc1ccc(Br)cc1` reads 32.7 µg/mL (≈ 81.9 µM); that for `CCO.Nc1nc(N)c2cc(Sc3ccc4ccccc4c3)ccc2n1`, less than 1 µg/mL.
The compound `CCc1ccccc1C(=O)N1CCc2cc(-c3nc(NC(=O)Cc4ccc5c(c4)OCO5)sc3C)ccc21` gave a solubility (kinetic) of less than 1 µg/mL.
To `Fc1cc(Nc2nc(-c3ccncc3)nc3ccccc23)ccc1-c1cccc(OC(F)(F)F)c1` belongs less than 1 µg/mL; to `CC(C)C[C@H]1C(=O)N2CCC[C@H]2[C@]2(O)O[C@](NC(=O)[C@@H]3C=C4c5cccc6[nH]c(Br)c(c56)C[C@H]4N(C)C3)(C(C)C)C(=O)N12`, less than 1 µg/mL.
For the compound `Cc1sc2c(c1C)C(c1ccc(Cl)cc1)=N[C@@H](CC(=O)Nc1ccc(OCCOCCOCCOCCNc3cccc4c3C(=O)N(C3CCC(=O)NC3=O)C4=O)cc1)c1nnc(C)n1-2` (stereo not given in full), the solubility (kinetic) was less than 1 µg/mL.
To `Cc1cc(F)c(C(=O)Nc2cccc(-c3nncn3C(C)C)n2)cc1-n1cnc(C2CC2)c1` belongs 49.8 µg/mL (≈ 112 µM).
To `Cc1ccc(NC2=C(c3ccc(C(F)(F)F)cc3)C(=O)c3ccccc32)cc1C` belongs less than 1 µg/mL.
`CC(C)(C)c1ccc(SC2=NS(=O)(=O)c3ccccc32)cc1` gave a kinetic solubility of less than 1 µg/mL.
As for `COc1ccc2c(c1)CN(C(=O)CCN1CCC(Cc3ccccc3)CC1)CCS2`, the solubility (kinetic) was more than 63 µg/mL.
To `Nc1ccc(CNc2ccc([S+](=O)([O-])Nc3nccs3)cc2)c(O)c1` belongs 45.7 µg/mL (≈ 121 µM); to `CCOC(=O)c1c(NC(=O)CN2CCCCC2)sc2c1CCN(C(=O)OCC)C2`, 27.6 µg/mL (≈ 65.2 µM); to `CCN(c1cc(C#CCN2CCOCC2)cc(C(=O)NCc2c(C)cc(C)[nH]c2=O)c1C)C1CCC(N(C)CCOC)CC1` (stereo not given), more than 89 µg/mL.
The result for `OCc1ccc(-c2cc3c(ccn3Cc3cccnc3)c(C3=CCOCC3)n2)cc1` reads 54.9 µg/mL (≈ 138 µM); that for `COc1ccc(-c2cc(-c3cccc(NC(C)=O)c3)cn3cncc23)cn1`, 6.93 µg/mL (≈ 19.3 µM).
The result for `COc1ccccc1Nc1cnc2ccc(-c3ccc(OC)c(OC)c3)nn12` reads less than 1 µg/mL; that for `N#Cc1nc(-c2cccc3ccccc23)oc1NC1CNC1`, 9.62 µg/mL (≈ 33.1 µM).
`CS(=O)(=O)Nc1cccc(-c2nccc(-n3ccnc3)n2)c1` returned a kinetic solubility of more than 47 µg/mL.
`CC(=O)c1c(C)[nH]c(C(=O)Nc2ccc(C)c(S(=O)(=O)N3CCCCCC3)c2)c1C`: the solubility (kinetic) came to 1.05 µg/mL (≈ 2.44 µM).
The compound `COc1cc2c(cc1Oc1cccc(N(C)C)c1)NC(=O)C21CCN(c2cnccn2)CC1` displayed a kinetic solubility of 2.21 µg/mL (≈ 4.97 µM).
`CN(Cc1cnc2nc(N)nc(N)c2n1)c1ccc(C(=O)N[C@@H](CCC(=O)O)C(=O)O)cc1`: the solubility (kinetic) was more than 67 µg/mL.
The result for `COc1ccc(CNC(=O)CCCn2nc(C)c3c(C)n(-c4ccc(C)cc4)nc3c2=O)cc1OC` reads more than 48 µg/mL; that for `COc1ccc(-n2c(C)c(C(C)=O)c3cc(OC(=O)COc4ccccc4)ccc32)cc1`, less than 1 µg/mL; that for `CCN1CCN(CCCNC(=O)c2ccc3c(c2)sc2nc(-c4ccc(OC)cc4)cn23)CC1`, more than 71 µg/mL.
As to `COc1ccccc1C(=O)Nc1ccccc1C(=O)Nc1cccc(SC(F)(F)F)c1`, the kinetic solubility was less than 1 µg/mL.
Compound `O=c1cc(CN2CCCN(c3ccc(C(F)(F)F)cn3)CC2)nc2ccccn12` came in with a solubility (kinetic) of more than 60 µg/mL.
The result for `CCN(CC)S(=O)(=O)c1ccc(N2CCCC2)c(NS(=O)(=O)c2ccccc2)c1` reads less than 1 µg/mL.
The result for `Cc1ccc(NS(=O)(=O)c2cccc(C(=O)Nc3nc(-c4ccccc4)cs3)c2)cc1` reads less than 1 µg/mL; that for `O=S(=O)(c1ccccc1)N1CCCCC1CCc1ccccc1` (stereo not given), 4.39 µg/mL (≈ 13.3 µM); that for `Cc1ccc(S(=O)(=O)Nc2ccc(Cl)c(C(=O)Nc3nc(-c4ccccc4)cs3)c2)cc1`, less than 1 µg/mL.
To `CCOC(=O)c1ccc(N2C(=O)c3n[nH]c(-c4ccco4)c3C2c2ccc(C)cc2)cc1` (stereo not given) belongs 1.45 µg/mL (≈ 3.38 µM); to `NCC(=O)Nc1ccc(Cl)cc1C(=O)c1ccc[nH]1`, more than 41 µg/mL; to `CC(C)(C)OC(=O)N[C@@H](Cc1ccc(O[S+](=O)([O-])c2cccc3cnccc23)cc1)C(=O)N1CCN(Cc2ccccc2)CC1`, less than 1 µg/mL.
The compound `Cc1cccc2c1NC(=O)/C2=C/c1cc(Cl)c(O)c(Cl)c1` showed a kinetic solubility of 10.1 µg/mL (≈ 31.5 µM).
On to `CCOc1ccc(CCNC(=O)c2cc3c(s2)CCC3)cc1OCC`, for which the kinetic solubility is 4.46 µg/mL (≈ 12.4 µM).
To `O=S(=O)(Nc1ccc(-c2ccccc2)cc1)c1ccc(NCc2cccc(Cl)c2O)cc1` belongs less than 1 µg/mL.
`CC1=C(C(=O)Nc2nnc(-c3ccccc3)s2)C(c2nn(C)cc2Cl)N=C(Nc2nc3ccccc3o2)N1` (stereo not given): the solubility (kinetic) was less than 1 µg/mL.
In turn, `O=C(c1ccc2c(c1)ncn2-c1ccc(C(F)(F)F)cc1)N1CCCCC1` gave a solubility (kinetic) of more than 55 µg/mL.
To `CN1C(=O)CN=C(c2ccccc2Cl)c2cc(Cl)ccc21` belongs more than 47 µg/mL; to `O=C(NC1CC1)C1CCCN1C(=O)c1cccc(-c2ccccn2)c1` (stereo not given), more than 74 µg/mL; to `O=[S+]([O-])(Nc1nccs1)c1ccc(NCc2cc(Cl)cc(Br)c2O)cc1`, less than 1 µg/mL.
To `Cc1nn2c(c1-c1ccccc1-c1ccccc1)N(CCC(C)C)CCC2` belongs less than 1 µg/mL; to `COc1ccc(S(=O)(=O)N(CC(=O)Nc2ccc(C)cc2)c2ccc(C)cc2)cc1OC`, less than 1 µg/mL.
The result for `Cc1cccc(C(=O)N2CCc3cc(-c4nc(NC(=O)Cc5ccc6c(c5)OCO6)sc4C)ccc32)c1` reads 4.07 µg/mL (≈ 7.96 µM).
In turn, `COCC(C)Nc1ncnc2c1cnn2-c1ccc(C)c(C)c1` (stereo not given) came in with a kinetic solubility of 5.58 µg/mL (≈ 17.9 µM).
To `Cc1cnc(-c2ccccc2C(C)(C)C)nc1NCc1ccc(-n2ccnn2)cc1` belongs 13.2 µg/mL (≈ 33.2 µM).
For the compound `CC1=Nc2cc(C(=O)NC3CCCC3)ccc2Sc2ccc(C)cc21`, the solubility (kinetic) is 1.05 µg/mL (≈ 3 µM).
The result for `O=C(O)c1ccccc1C(=O)Nc1ccc(-c2ccccc2)cc1` reads more than 47 µg/mL; that for `O=C(Nc1cccc(C(F)(F)F)c1)c1cc2nc(-c3ccccc3)cc(C(F)(F)F)n2n1`, less than 1 µg/mL; that for `CC(=O)Nc1nc(C)c(-c2ccc(Cl)c(S(=O)(=O)NCCO)c2)s1`, more than 57 µg/mL.
The result for `COc1ccc(NC2=C(c3ccc(C(F)(F)F)cc3)C(=O)c3ccccc32)cc1` reads 1.04 µg/mL (≈ 2.64 µM); that for `CC1(C)C[C@@H]2C[C@@](C)(CN2S(=O)(=O)c2ccc(C(=O)Nc3ccc(Cl)c(S(=O)(=O)N4CCOCC4)c3)cc2)C1`, less than 1 µg/mL.
The result for `Cc1ccccc1C(=O)NC1CCN(c2ccc3nnc(C4CC4)n3n2)CC1` reads more than 56 µg/mL.
On to `CCn1nc(C2CCN(C(=O)CCO)CC2)nc1-c1cnc(N)c(-c2nnc(C(C)(C)C)o2)n1`, for which the kinetic solubility was more than 69 µg/mL.
To `Cc1ccnc(NC(=S)N2CCN(c3ccc(C(F)(F)F)cc3)CC2)c1` belongs less than 1 µg/mL; to `Cc1ccc(-c2cc(C(=O)Nc3ccc(-c4nn[nH]n4)cc3)c3ccccc3n2)cc1C`, 7.58 µg/mL (≈ 18 µM); to `Cc1ccc(C)c(SC2=NS(=O)(=O)c3ccccc32)c1`, less than 1 µg/mL.
`Cc1ccc(S(=O)(=O)Nc2ccc(C(=O)Nc3nc(-c4ccccc4)cs3)c(Cl)c2)cc1` showed a solubility (kinetic) of less than 1 µg/mL.
To `Cc1noc(C)c1CN1CCNc2cc(Nc3ccccc3)ncc2C1` belongs more than 77 µg/mL.
To `CCOc1ccc(-c2nnc(SCC(=O)NCc3ccccc3Cl)o2)cc1` belongs less than 1 µg/mL.
The result for `Cc1ccc(S(=O)(=O)Nc2ccccc2C(=O)Nc2nc(-c3ccccc3)c(C)s2)cc1` reads less than 1 µg/mL.
Regarding `CC(C)Oc1ccc(-c2csc(N3CCC(C(N)=O)CC3)n2)cc1`, the solubility (kinetic) stood at 11.7 µg/mL (≈ 33.8 µM).
Take `Cc1cc(C(=O)Nc2nnc(C3CCCCC3)s2)cs1`: the solubility (kinetic) is less than 1 µg/mL.
Take `O=C(Nc1ccc(Cl)c(S(=O)(=O)N2CCOCC2)c1)c1ccc(S(=O)(=O)N2CCOCC2)cc1`: the kinetic solubility is less than 1 µg/mL.
The result for `COc1cccc(CNc2ccc(S(=O)(=O)Nc3nc(C)cs3)cc2)c1O` reads 42.7 µg/mL (≈ 105 µM); that for `COc1ccc(C2Nc3ccccc3C(=O)N2Cc2ccco2)cc1COc1c(C)cc(NC(C)=O)cc1C` (stereo not given), 1.53 µg/mL (≈ 2.92 µM); that for `Cc1cccc(C)c1NC(=O)c1nc(SC(C)C)ncc1Cl`, 1.22 µg/mL (≈ 3.64 µM).
